Measurements reported in patent US12595231B2 (priority 2022, dated 2026).
≈ marks a conversion by molar mass, not a printed value. Where two headings read alike, the source gives them in different places.

Legend:
[1] = primary salt formation assessment: storage at 40° C./75% RH for ca. 24 h, XRPD; assay type: physicochemical; conditions: solids stored at 40° C./75% RH for ca. 24 h
Experimental: Solids were dried at 40° C. under vacuum for ca. 24 h, and then re-analysed by XRPD.
Solids were then stored at 40° C./75% RH for ca. 24 h, and then re-analysed by XRPD.

[2] = assay type: physicochemical
Experimental: Approximately 20 mg of each salt was weighed into 3×2 mL push cap vials. 0.1 mL of buffer (Chloride pH 1.2; Acetate pH 4.5; Phosphate pH 6.8) was added to each vial, at 25° C. The experiment was stirred for ca. 24 h. After 2 h, the pH was measured and adjusted if required. After 24 h a final pH measurement was taken. Any slurries were centrifuged and the solids analysed by XRPD.

[3] = primary salt formation assessment: solution degradation (HPLC of mother liquor); assay type: physicochemical; conditions: salt formation experiment
Experimental: HPLC analysis was carried out to determine the chemical purity of the mesembrine and to provide information on any impurities. The following conditions were use: • Column: Waters Acquity BEH 018 1.7 μm 150 mm×2.1 mm • Column Temperature: 33° C. • Autosampler Temperature: 25° C. • UV Wavelength: 280 nm • Injection Volume: 5 μL • Flow Rate: 0.29 mL/min • Mobile Phase A: 0.1% NH4 in H2O • Mobile Phase B: Methanol:Water 20:80% v/v • Gradient Program: […]
The experiments were then temperature cycled between the upper temperature limit (specified in Table 3.1) and 5° C. at 0.1° C./min, with 1 h holds at the upper temperature limit, and 5° C. for ca. 72 h.
After temperature cycling, solids were isolated from experiments at 5° C., and analysed by XRPD.

[4] = 1-week stability study; assay type: physicochemical; conditions: for Observation: Sigma Aldrich colour chart
Experimental: A 1-week stability study was performed for hydrochloride salt Pattern 1, besylate salt Pattern 1, fumarate salt Pattern 1+4, and fumarate salt Pattern 4.
Approximately 5 mg of the salt was weighed into 3×2 mL push cap vials. The 2 mL vials were then each placed inside a 20 mL vial, with the lids on or off as required. The solids were placed under the required stability conditions for 1 week at the following three conditions: 40° C./75% RH (open); 80° C. (closed); Ambient light, temperature and humidity (open)
After 1-week, visual observations were noted, then the solids were analysed by XRPD and HPLC.

[5] = DVS analysis (water uptake); assay type: physicochemical; conditions: 80% RH, 25° C.; listed as fumarate salt Pattern 4
[6] = male C57Bl/6J mice, 10 mg/kg i.p.
[7] = solubility screen of amorphous besylate salt; assay type: physicochemical
Experimental: The amorphous besylate salt prepared in Example 8 was used in a solubility screen as follows:
Known volume aliquots of solvent system were added to each vial, with heating at 40° C. between each addition for ca. 5 minutes. Addition of solvents was continued until either dissolution was observed, or until 100 volumes (ca. 1 mL) had been added.
After the solvent addition was complete, the experiments were stirred at 40° C. for ca. 16 h. […] The solids were isolated by centrifuge filtration and were analysed by XRPD.
Any solids isolated were analysed by XRPD.

[8] = blood:plasma and blood:brain ratios in satellite animals; assay type: in vivo, male C57Bl/6J mice; conditions: satellite mice, 10 mg/kg i.p., t=0.25 h
Experimental: Groups of 18 male C57Bl/6J mice (weighing between 20 and 30 g) received a single administration of test compound (10 mg/kg; i.p.) in methylcellulose (0.5% w/v) at a nominal concentration of […].

[9] = cited from earlier work
[10] = solvent miscibility/solubility of mesembrine (Example 2); assay type: physicochemical
Experimental: After dissolution 278 μL of the solution was aliquoted into pre-tared vials, and the solvent allowed to evaporate at ambient conditions for 1 h. The vials were then dried at 20° C. under vacuum for ca. 22 h. After drying, the vials were back-weighed to determine the mass of mesembrine in each vial.
The miscibility study was carried out by adding aliquots of the desired solvent system to each vial. The following aliquot sizes were used: Aliquot numbers 1-10-20 μL; 11-16-50 μL; 17-19-200 μL; 20-750 μL.
In between additions the experiment was heated to 40° C. for ca. 5 minutes to facilitate miscibility/solubility. Additions were continued until miscibility was observed, or ca. 100 volumes (2 mL) had been added.

[11] = Ambient light, temperature and humidity, 1 week

COc1ccc(C23CCC(=O)CC2N(C)CC3)cc1OC.O=C(O)/C=C/C(=O)O (stereo not shown) [Fumarate Pattern 1, mesembrine fumarate]
physical stability at 40° C./75% RH (Comments) [1]: Physically stable | HPLC Conc. ([2]; Target pH 1.2 (chloride buffer), 25° C., 24 h, with respect to mesembrine): 29.44 mg/mL | Observation ([2]; Target pH 6.8, ca. 20 mg in 0.1 mL buffer): Oiling

COc1ccc(C23CCC(=O)CC2N(C)CC3)cc1OC.O=C(O)/C=C/C(=O)O (stereo not shown) [Fumarate Pattern 2, mesembrine fumarate]
solution degradation (Comments) [3]: degradation

COc1ccc(C23CCC(=O)CC2N(C)CC3)cc1OC.O=C(O)C=CC(=O)O (stereo not shown) [Fumarate Pattern 4, mesembrine fumarate]
HPLC ([4]; 40° C./75% RH (open), 1 week): 96.4 % area | XRPD (pattern number) ([4]; 40° C./75% RH (open), 1 week): 4, | Observation ([4]; 40° C./75% RH (open), 1 week): Faint beige solids (BE10) | HPLC ([4]; 80° C. (closed), 1 week): 96.4 % area | XRPD (pattern number) ([4]; 80° C. (closed), 1 week): 4, | Observation ([4]; 80° C. (closed), 1 week): Faint beige solids (BE10) | HPLC [4, 11]: 96.4 % area | XRPD (pattern number) [4, 11]: 4, | Observation [4, 11]: Faint beige solids (BE10) | HPLC ([4]; Input): 95.9 % area | XRPD (pattern number) ([4]; Input): 4, | DVS water uptake [5]: 0.5 wt %

COc1ccc(C23CCC(=O)CC2N(C)CC3)cc1OC.O=P(O)(O)O (stereo not shown) [Phosphate Pattern 1, mesembrine phosphate]
solution degradation (Comments) [3]: degradation

COc1ccc(C23CCC(=O)CC2N(C)CC3)cc1OC.O=C(O)CCC(=O)O (stereo not shown) [Succinate Pattern 1, mesembrine succinate]
solution degradation (Comments) [3]: degradation

COc1ccc(C23CCC(=O)CC2N(C)CC3)cc1OC.O=C(O)C(O)C(O)C(=O)O (stereo not shown) [Tartrate Pattern 1, mesembrine tartrate]
solution degradation (Comments) [3]: degradation | physical stability at 40° C./75% RH (Comments) [1]: Deliquescence

COc1ccc(C23CCC(=O)CC2N(C)CC3)cc1OC.O=S(=O)(O)c1ccccc1 (stereo not shown) [amorphous besylate salt, mesembrine besylate]
AUC greater than that produced by the mesembrine free base [6]: over 100 ng·hr/mL | difference in half-life versus the free base [6]: ~10 min | AUC0-inf ([6]; plasma): 392 ng·h/mL | Cmax ([6]; plasma): 451 ng/mL | Tmax ([6]; plasma): 15 min | half-life ([6]; plasma): 36.9 min | Solubility ([7]; 1,4-Dioxane): <10000 µg/mL | Solubility ([7]; 1-Butanol): <10000 µg/mL | Solubility ([7]; 1-Propanol): ca.31 mg/mL | Solubility ([7]; 2-Ethoxyethanol): ca.44 mg/mL | Solubility ([7]; 2-Methyl THF): <10000 µg/mL | Solubility ([7]; 2-Propanol): <10000 µg/mL | Solubility ([7]; 2-Propanol:Water (50:50)): >500000 µg/mL | Solubility ([7]; 2-Propanol:Water (75:25)): ca.167 mg/mL | Solubility ([7]; Acetone): <10000 µg/mL | Solubility ([7]; Acetone:Water (90:10)): >500000 µg/mL | Solubility ([7]; Acetonitrile): >500000 µg/mL | Solubility ([7]; Anisole): <10000 µg/mL | Solubility ([7]; Butyl Acetate): <10000 µg/mL | Solubility ([7]; Dichloromethane (DCM)): ca.250 mg/mL | Solubility ([7]; Diisopropyl ether): <10000 µg/mL | Solubility ([7]; Dimethylsulfoxide (DMSO)): >500000 µg/mL | Solubility ([7]; Ethanol): ca.44 mg/mL | Solubility ([7]; Ethanol:Water (50:50)): >500000 µg/mL | Solubility ([7]; Ethanol:Water (90:10)): >500000 µg/mL | Solubility ([7]; Ethyl acetate): <10000 µg/mL | Solubility ([7]; Heptane): <10000 µg/mL | Solubility ([7]; Isopropyl acetate): <10000 µg/mL | Solubility ([7]; Methanol): >500000 µg/mL | Solubility ([7]; Methylethyl Ketone (MEK)): <10000 µg/mL | Solubility ([7]; Methylisobutyl Ketone (MiBK)): <10000 µg/mL | Solubility ([7]; N,N-Dimethylacetamide (DMA)): >500000 µg/mL | Solubility ([7]; N,N-Dimethylformamide (DMF)): ca.250 mg/mL | Solubility ([7]; N-Methylpyrrolidone (NMP)): >500000 µg/mL | Solubility ([7]; Tetrahydrofuran (THF)): <10000 µg/mL | Solubility ([7]; Toluene): <10000 µg/mL | Solubility ([7]; Water): >500000 µg/mL | Solubility ([7]; tert-Butylmethyl Ether (tBME)): <10000 µg/mL | Brain concentration [8]: 814 ng/g | Plasma concentration [8]: 417 ng/mL

COc1ccc(C23CCC(=O)CC2N(C)CC3)cc1OC (stereo not shown) [mesembrine, 3a-(3,4-dimethoxyphenyl)-octahydro-1-methy-6H-indol-6-one]
AUC0-inf ([6]; plasma): 290 ng·h/mL | Cmax ([6]; plasma): 400 ng/mL | Tmax ([6]; plasma): 15 min | half-life ([6]; plasma): 27.2 min | t1/2 ([6]; plasma): 27.2 min | Solubility ([9]; Ethanol): 10000 µg/mL (≈ 34.6 mM) | Solubility ([9]; Water): low solubility | Solubility ([9]; chloroform): 10000 µg/mL (≈ 34.6 mM) | Brain concentration [8]: 1292 ng/g | Plasma concentration [8]: 317 ng/mL | Miscibility ([10]; 1,4-Dioxane): >850 mg/mL | Miscibility ([10]; 2-Methyl THF): >845 mg/mL | Miscibility ([10]; 2-Propanol (IPA)): >870 mg/mL | Miscibility ([10]; 2-Propanol:Water (50:50)): >870 mg/mL | Miscibility ([10]; Acetone): >890 mg/mL | Miscibility ([10]; Acetonitrile): >855 mg/mL | Miscibility ([10]; DMSO): >288 mg/mL | Miscibility ([10]; Ethanol): >630 mg/mL | Miscibility ([10]; Ethyl acetate): >445 mg/mL | Miscibility ([10]; Heptane): <9 mg/mL | Miscibility ([10]; Isopropyl acetate): >900 mg/mL | Miscibility ([10]; Methanol): >455 mg/mL | Miscibility ([10]; Methylethyl Ketone (MEK)): >915 mg/mL | Miscibility ([10]; N-Methyl-2-pyrrolidone (NMP)): >450 mg/mL | Miscibility ([10]; Tert-butyl methyl ether): >465 mg/mL | Miscibility ([10]; Tetrahydrofuran (THF)): >381 mg/mL | Miscibility ([10]; Toluene): >455 mg/mL | Miscibility ([10]; Water): <9 mg/mL
